Converted amounts (≈) assume the structure as drawn. Where only a bound is given, the exact number is not on record here.

Consider 16 molecules from ChEMBL document CHEMBL1122521, “Nucleic acid related compounds. 47. Synthesis and biological activities of pyrimidine and purine "acyclic" nucleoside analogues” (J Med Chem, 1984).

This test deals with Vaccinia virus. Nature of the test: Concentration required to reduce cytopathogenicity of vaccinia virus by 50% in primary rabbit kidney (PRK) cells. Type of test: functional, Orthopoxvirus vaccinia. (Protection from cytopathic effect is a common read-out in antiviral testing.)
`Nc1nc(Cl)c2ncn(COCCO)c2n1` displayed an ID50 of 70 µg/mL (≈ 287 µM).

On to `CN(C)c1nc2c(=O)[nH]c(N)nc2n1COCCO`, for which the ID50 entry was “>=300 ug ml-1”.

Regarding `Nc1nc2c(nc(Br)n2COCCO)c(=O)[nH]1`, the ID50 was >400 µg/mL.

As for `Nc1ccn(COCCO)c(=O)n1`, the ID50 is >400 µg/mL.

As to `Cc1nc2c(O)nc(N)nc2n1COCCO`, the ID50 is >400 µg/mL.

`CC(=O)OCCOCn1cnc2c(Cl)ncnc21` yielded an ID50 of 20 µg/mL (≈ 73.9 µM).

Consider `O=c1[nH]c(=O)n([C@H]2C[C@H](O)[C@@H](CO)O2)cc1/C=C/Br` [BRIVUDINE], for which the ID50 is 7 µg/mL (≈ 21 µM).

Take `Nc1nc(O)c2nc(N3CCCCC3)n(COCCO)c2n1`: the ID50 is >400 µg/mL.

For `CNc1nc2c(=O)[nH]c(N)nc2n1COCCO`, the ID50 is >400 µg/mL.

Regarding `Nc1nc2c(nc(I)n2COCCO)c(=O)[nH]1`, the ID50 is >400 µg/mL.

The molecule `CC(=O)OCCOCn1cnc2c(Cl)nc(N)nc21` showed an ID50 of 70 µg/mL (≈ 245 µM).

For the molecule `Nc1nc2c(nc(N)n2COCCO)c(=O)[nH]1`, the ID50 was >100 µg/mL.

Turning to `Nc1ncnc2c1ncn2COCCO`, the ID50 was 20 µg/mL (≈ 95.6 µM).

Turning to `Nc1nc2c(nc(O)n2COCCO)c(=O)[nH]1`, the ID50 is >400 µg/mL.

On to `O=c1[nH]c(=O)n([C@H]2C[C@H](O)[C@@H](CO)O2)cc1I` [IDOXURIDINE], for which the ID50 was determined as 0.2 µg/mL (≈ 0.565 µM).

As to `Nc1nc2c(ncn2COCCO)c(=O)[nH]1` [ACYCLOVIR], the ID50 worked out at 50 µg/mL (≈ 222 µM).
